Reference: ChEMBL document CHEMBL4418262, “Heterocyclic compounds for the inhibition of pask” (2016)

Biological target: PAS domain-containing serine/threonine-protein kinase (Homo sapiens, UniProt Q96RG2)
Experiment: Inhibition of GST-tagged human recombinant PASK expressed in Baculovirus based system using Ulight-peptide substrate incubated for 2 hrs by TR-FRET assay

Chain of PAS domain-containing serine/threonine-protein kinase (Q96RG2 whole entry, the tested form may be a part): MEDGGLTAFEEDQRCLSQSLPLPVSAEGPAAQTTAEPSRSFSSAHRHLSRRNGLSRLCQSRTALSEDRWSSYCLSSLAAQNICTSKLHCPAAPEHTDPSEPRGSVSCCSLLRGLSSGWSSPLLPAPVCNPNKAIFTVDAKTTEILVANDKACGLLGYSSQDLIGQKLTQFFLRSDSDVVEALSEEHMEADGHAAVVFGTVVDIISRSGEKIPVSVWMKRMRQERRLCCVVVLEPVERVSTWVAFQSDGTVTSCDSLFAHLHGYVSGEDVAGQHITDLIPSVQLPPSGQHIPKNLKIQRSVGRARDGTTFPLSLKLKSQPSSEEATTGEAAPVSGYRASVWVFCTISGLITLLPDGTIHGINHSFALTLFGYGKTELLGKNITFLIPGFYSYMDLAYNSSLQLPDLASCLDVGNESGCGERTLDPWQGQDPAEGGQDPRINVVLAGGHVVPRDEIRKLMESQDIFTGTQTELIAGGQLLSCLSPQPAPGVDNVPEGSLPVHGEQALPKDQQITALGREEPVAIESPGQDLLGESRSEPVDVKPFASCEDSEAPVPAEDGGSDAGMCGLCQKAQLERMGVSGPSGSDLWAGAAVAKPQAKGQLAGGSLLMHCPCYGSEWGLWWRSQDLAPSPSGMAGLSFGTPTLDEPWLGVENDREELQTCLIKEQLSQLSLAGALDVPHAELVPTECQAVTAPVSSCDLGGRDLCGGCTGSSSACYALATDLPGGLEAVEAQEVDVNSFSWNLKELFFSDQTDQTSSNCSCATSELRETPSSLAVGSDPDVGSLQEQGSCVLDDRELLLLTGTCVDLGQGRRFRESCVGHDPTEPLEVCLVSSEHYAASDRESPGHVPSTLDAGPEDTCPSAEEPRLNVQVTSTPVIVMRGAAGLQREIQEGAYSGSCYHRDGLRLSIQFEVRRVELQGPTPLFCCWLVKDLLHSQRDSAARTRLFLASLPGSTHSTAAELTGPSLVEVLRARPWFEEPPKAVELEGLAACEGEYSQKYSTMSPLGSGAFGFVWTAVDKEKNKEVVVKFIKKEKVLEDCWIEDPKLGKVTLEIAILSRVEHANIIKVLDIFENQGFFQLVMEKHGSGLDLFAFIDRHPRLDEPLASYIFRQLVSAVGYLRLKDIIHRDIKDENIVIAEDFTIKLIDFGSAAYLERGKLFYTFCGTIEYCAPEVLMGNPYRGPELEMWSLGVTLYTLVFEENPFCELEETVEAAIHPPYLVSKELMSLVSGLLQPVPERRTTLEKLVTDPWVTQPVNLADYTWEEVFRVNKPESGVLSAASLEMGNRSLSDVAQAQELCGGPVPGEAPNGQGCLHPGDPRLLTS

| IC50 | SMILES |
| --- | --- |
| ≤ 10 µM | CN(c1nc2cc(C(=O)O)ccc2nc1-c1ccc(F)cc1)C1CCC(O)CC1 (centres undefined) |
| ≤ 10 µM | C[C@H]1CCCN1c1nc2cc(C(=O)O)ccc2nc1-c1coc2ccc(C(F)(F)F)cc12 |
| ≤ 10 µM | CC(C)N(C)c1nc2cc(C(=O)O)ccc2nc1-c1coc2ccc(C(F)(F)F)cc12 |
| ≤ 10 µM | C[C@H]1CCCCN1c1nc2cc(C(=O)O)ccc2nc1-c1cc2cc(F)ccc2o1 |
